Experimental data: the NIST ThermoML archive (doi:10.1016/j.fluid.2011.05.017)
± gives the expanded uncertainty stated by the source.

Assay: wn = mass fraction of the nth substance listed
Settings: 101 kPa, Liquid; for viscosity: Capillary tube (Ostwald / Ubbelohde) method; for mass density: Vibrating tube method

CCC(C)O (stereo not drawn) [butan-2-ol] + O
viscosity (298.15 K, w1 = 0.7): 3.342 ± 0.029 mPa·s
viscosity (298.15 K, w1 = 0.8): 3.098 ± 0.026 mPa·s
viscosity (298.15 K, w1 = 0.9): 2.812 ± 0.024 mPa·s
mass density (298.15 K, w1 = 0.7): 863.8 ± 0.2 kg/m3
mass density (298.15 K, w1 = 0.8): 843.6 ± 0.2 kg/m3
mass density (298.15 K, w1 = 0.9): 822.8 ± 0.2 kg/m3
viscosity (303.15 K, w1 = 0.7): 2.795 ± 0.025 mPa·s
viscosity (303.15 K, w1 = 0.8): 2.608 ± 0.023 mPa·s
viscosity (303.15 K, w1 = 0.9): 2.375 ± 0.021 mPa·s
mass density (303.15 K, w1 = 0.7): 859.6 ± 0.2 kg/m3
mass density (303.15 K, w1 = 0.8): 839.2 ± 0.2 kg/m3
mass density (303.15 K, w1 = 0.9): 818.8 ± 0.2 kg/m3
viscosity (308.15 K, w1 = 0.7): 2.377 ± 0.022 mPa·s
viscosity (308.15 K, w1 = 0.8): 2.216 ± 0.021 mPa·s
viscosity (308.15 K, w1 = 0.9): 2.029 ± 0.019 mPa·s
mass density (308.15 K, w1 = 0.7): 855.1 ± 0.2 kg/m3
mass density (308.15 K, w1 = 0.8): 834.8 ± 0.2 kg/m3
mass density (308.15 K, w1 = 0.9): 813.5 ± 0.2 kg/m3
